pIC50, pKi: −log10 of the molar value. Where two headings read alike, the source gives them in different places. One block for each compound: values may come before it.
Key:
Format in all cases: biochemical
[1] = target: T1, truncated form of human GAPDHS (Mus musculus, UniProt Q64467); test: Inhibition of dehydrogenase activity of recombinant truncated GAPDHS (NADH accumulation at 340 nm);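 note: recombinant enzyme (1 µg) in glycine–phosphate–EDTA buffer pH 8.9, inhibitors tested from 1 µM to 3 mM, activity relative to DMSO-only controls taken as 100%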
T1 construct: tGapdhs, amino acids 106-438; made in house; host or cells: E. coli K-12 strain DS112 (gapA-deficient)
T1 sequence (Q64467 108-440): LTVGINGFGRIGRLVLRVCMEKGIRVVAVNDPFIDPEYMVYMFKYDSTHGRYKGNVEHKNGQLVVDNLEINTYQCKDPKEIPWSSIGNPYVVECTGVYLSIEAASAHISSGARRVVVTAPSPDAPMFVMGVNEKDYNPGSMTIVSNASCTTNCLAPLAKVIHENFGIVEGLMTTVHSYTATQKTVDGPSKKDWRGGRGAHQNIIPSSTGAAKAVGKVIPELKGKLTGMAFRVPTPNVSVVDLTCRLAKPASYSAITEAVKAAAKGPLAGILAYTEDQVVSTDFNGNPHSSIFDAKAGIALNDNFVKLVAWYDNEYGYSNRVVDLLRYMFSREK

recombinant human GAPDH = target: T2, recombinant human GAPDH (Mus musculus, UniProt P16858); test: Inhibition of dehydrogenase activity of recombinant somatic GAPDH (NADH accumulation at 340 nm); conditions: 1 hour preincubation at 4° C., 0.5 mM NAD, 0.5 mM glyceraldehyde-3-phosphate
T2 construct: made in house; host or cells: E. coli K-12 strain DS112 (gapA-deficient)
T2 sequence (P16858 whole entry): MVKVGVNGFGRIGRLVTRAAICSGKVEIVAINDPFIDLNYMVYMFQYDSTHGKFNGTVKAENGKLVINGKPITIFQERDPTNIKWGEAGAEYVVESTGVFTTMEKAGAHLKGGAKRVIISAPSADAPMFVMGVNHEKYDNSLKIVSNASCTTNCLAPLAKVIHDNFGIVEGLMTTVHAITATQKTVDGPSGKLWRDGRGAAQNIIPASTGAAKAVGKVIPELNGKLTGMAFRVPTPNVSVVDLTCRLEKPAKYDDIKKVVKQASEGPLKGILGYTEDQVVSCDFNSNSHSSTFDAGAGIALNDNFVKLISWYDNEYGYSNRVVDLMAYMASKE
From the text: In subsequent studies to test inhibitors identified in computer docking studies, recombinant mouse Gapdh and the truncated form of Gapdhs (tGapdhs, amino acids 106-438) were expressed in DS112 gapA-deficient E. coli strain K-12 (available from the Yale University E. coli Genetics Stock Center, New Haven, Conn., United States of America). The truncated Gapdhs lacks the proline-rich N-terminus, but contains all the amino acids required for enzyme activity. The recombinant proteins were purified and activities were determined with a standard enzyme assay (Schmalhausen et al., 1997). Using this assay, the dehydrogenase activity of Gapdh and tGapdhs was monitored at 340 nm by measuring the accumulation of NADH.
The reaction mixture (200 μl) contained 50 mM glycine, 50 mM potassium phosphate, 5 mM EDTA (pH 8.9), 1 μg of recombinant enzyme (Gapdh or tGapdhs), 0.5 mM NAD, and 0.5 mM glyceraldehyde-3-phosphate. Activities of Gapdh and tGapdh were compared in the presence of various concentrations of inhibitors. Compounds identified as potential inhibitors in modeling studies as described herein were obtained from Ryan Scientific (Mt. Pleasant, S.C., United States of America). Stocks for each compound were prepared by dissolving 5 mg in 50 μl of DMSO. These stocks were divided into 10 μl aliquots and frozen at −20° C.
To monitor inhibition, each compound (1 μM to 3 mM) was added to the above reaction mixture (without NAD and glyceraldehyde-3-phosphate) and incubated for 1 hour at 4° C. After the 1 hour incubation period, NAD and glyceraldehyde-3-phosphate were added to start the reaction. In each assay, controls containing equal amounts of DMSO were included to determine values for 100% activity. The IC50 for each compound was calculated as the concentration required to reduce dehydrogenase activity to 50% of the activity of control samples.

[2] = system: truncated form of human GAPDHS; test: Inhibition of dehydrogenase activity of recombinant truncated GAPDHS (NADH accumulation at 340 nm); conditions: comparison of IC50 values of Tables 7, 9 and 11;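 note: recombinant enzyme (1 µg) in glycine–phosphate–EDTA buffer pH 8.9, inhibitors tested from 1 µM to 3 mM, activity relative to DMSO-only controls taken as 100%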
Recombinant mouse Gapdh = target: T3, Recombinant mouse Gapdh (Mus musculus, UniProt P16858); test: Inhibition of recombinant Gapdh by adenine nucleotides (NAD reduction at 340 nm, 96-well format); conditions: for inhibition of Gapdhs (the other recombinant enzyme beside tGapdhs): result in words
T3 construct: GST (cleaved yes); made in house
T3 sequence (P16858 whole entry): as above

[3] = target: T4, truncated Gapdhs (tGapdhs; amino acids 106-438 of mouse Gapdhs) (Mus musculus, UniProt Q64467); test: Inhibition of recombinant tGapdhs by adenine nucleotides (NAD reduction at 340 nm, 96-well format); conditions: for inhibition of tGapdhs: recombinant enzyme, result in words
T4 construct: containing amino acids 106-438 of mouse Gapdhs; GST (cleaved yes); made in house
T4 sequence (Q64467 108-440): as the sequence (Q64467 108-440) above

[4] = Table 9, 1 hour preincubation at 4° C., 0.5 mM NAD, 0.5 mM glyceraldehyde-3-phosphate, read-out: IC50 GAPDHS
[5] = Table 11, 1 hour preincubation at 4° C., 0.5 mM NAD, 0.5 mM glyceraldehyde-3-phosphate, read-out: IC50 GAPDHS
[6] = competitive inhibitors of NAD cofactor binding, read-out: calculated Ki for Gapdh
[7] = competitive inhibitors of NAD cofactor binding, read-out: calculated Ki for tGapdhs
[8] = Table 7, 1 hour preincubation at 4° C., 0.5 mM NAD, 0.5 mM glyceraldehyde-3-phosphate, read-out: IC50 GAPDHS

pIC50 [1, 4]: 2.76
Compound: O=C(NNc1ccc(S(=O)(=O)Nc2ccccc2)cc1[N+](=O)[O-])Nc1cccc(C(F)(F)F)c1 [Compound T0506_1274, 2-[4-(anilinosulfonyl)-2-nitrophenyl]-N-[3-(trifluoromethyl)phenyl]hydrazinecarboxamide]

pIC50 [1, 4]: 3.82
pIC50 (recombinant human GAPDH; Table 9): 3.82
Compound: COc1cc(C=NNC(=O)Cn2cnc3c(=O)n(C)c(=O)n(C)c32)cc([N+](=O)[O-])c1O [LT_00444480, (1,3-Dimethyl-2,6-dioxo-1,2,3,6-tetrahydro-purin-9-yl)-acetic acid (4-hydroxy-3-methoxy-5-nitro-benzylidene)-hydrazide]

pIC50 [1, 4]: < 3.00
pIC50 (recombinant human GAPDH; Table 9): < 3.00
Compound: CCOC(=O)Cc1nnc2c(Nc3ccc(OC)cc3)nc3nonc3n12 [LT00105955, [5-(4-Methoxy-phenylamino)-2-oxa-1,3,4,6,7,8a-hexaaza-as-indacen-8-yl]-acetic acid ethyl ester]

pIC50 [1, 5]: < 3.00
pIC50 (recombinant human GAPDH; Table 11): < 3.00
Compound: CNc1cc([N+](=O)[O-])ccc1OC [Compound T0512_4753, (2-Methoxy-5-nitro-phenyl)-methyl-amine]

Compound: O=[N+]([O-])c1ccc2oc3ccccc3c2c1 [Compound T0515_4928, 2-Nitro-dibenzofuran]
selective inhibition: Gapdhs compared to Gapdh [2]: greater inhibition of Gapdhs than Gapdh
pIC50 [1, 5]: 4.00

Compound: Nc1ncnc2c1ncn2[C@@H]1O[C@@H]2COP(=O)(O)O[C@H]2[C@H]1O [cAMP, cyclic AMP]
pKi (Recombinant mouse Gapdh): 2.82
inhibition of Gapdhs (the other recombinant enzyme beside tGapdhs) (Recombinant mouse Gapdh): dose-dependent inhibition
pKi [3]: 2.48
inhibition of tGapdhs [3]: dose-dependent inhibition

IC50 GAPDHS ([1]; Table 9, 1 hour preincubation at 4° C., 0.5 mM NAD, 0.5 mM glyceraldehyde-3-phosphate): not soluble
Compound: COc1cc(C=NNc2ccc([N+](=O)[O-])cc2[N+](=O)[O-])ccc1OCC(=O)Nc1ccc(C)c(C)c1 [LT_01178124, N-(3,4-Dimethyl-phenyl)-2-{4-[(2,4-dinitro-phenyl)-hydrazonomethyl]-2-methoxy}-acetamide]

pIC50 [1, 4]: 2.70
Compound: Nc1nonc1-c1nc2ccccc2n1CC(=O)N/N=C\c1cc2c(cc1[N+](=O)[O-])OCO2 [LT_00237350, [2-(4-Aminofurazan-3-yl)-benzoimidazol-1-yl]-acetic acid [1-(6-nitro-benzo[1,3]dioxol-5-yl)-meth-(Z)ylidene]-hydrazide]

pKi (Recombinant mouse Gapdh; [6]): 2.90
inhibition of Gapdhs (the other recombinant enzyme beside tGapdhs) (Recombinant mouse Gapdh): dose-dependent inhibition
pKi [3, 7]: 2.19
Compound: Nc1ncnc2c1ncn2[C@@H]1O[C@H](COP(=O)(O)OP(=O)(O)OP(=O)(O)O)[C@@H](O)[C@H]1O [ATP, adenosine triphosphate]

Compound: C=CC(=O)NCNC(=O)C=C [LT_00050115, N-(Acryloylamino-methyl)-acrylamide]
pIC50 [1]: < 3.00
pIC50 (recombinant human GAPDH; Table 11): < 3.00

Compound: O=c1ccn([C@@H]2O[C@H](COP(=O)(O)OP(=O)(O)OP(=O)(O)O)[C@@H](O)[C@H]2O)c(=O)[nH]1 [UTP]
inhibition of Gapdhs (the other recombinant enzyme beside tGapdhs) (Recombinant mouse Gapdh): did not inhibit
inhibition of tGapdhs [3]: did not inhibit

pIC50 [1, 8]: 3.30
pIC50 (recombinant human GAPDH; Table 7): 4.00
Compound: Clc1ccc(N=c2ssnc2Cl)c(Cl)c1 [Compound 11K_064, 2,4-dichloro-N-(4chloro-5H-1,2,3-dithiazol-5-yliden)aniline]

selective inhibition: Gapdhs compared to Gapdh [2]: greater inhibition of Gapdhs than Gapdh
pIC50 [1, 8]: 3.30
pIC50 (recombinant human GAPDH; Table 7): < 3.00
Compound: O=C(COC(=O)CCc1c[nH]c2ccccc12)Nc1ccc(S(=O)(=O)N2CCOCC2)cc1 [Compound T0511_4909, 3-(1H-Indol-3-yl)-propionic acid [4-(morpholine-4-sulfonyl)-phenylcaramoyl]-methyl ester]

pIC50 [1, 8]: < 2.52
Compound: OCc1nc2ccccc2[nH]1 [Compound T0504_1251, (1H-Benzoimidazol-2-yl)-methanol]

pIC50 [1, 8]: < 3.00
pIC50 (recombinant human GAPDH; Table 7): 3.46
Compound: CN(C)c1ccc(C(CC(=O)c2c(O)c3ccccc3n(C)c2=O)NCc2ccncc2)cc1 (stereo not drawn) [LT_00232244, 3-{3-(4-Dimethylamino-phenyl)-3-[(pyridine-4-ylmethyl)-amino]-propionyl}-4-hydroxy-1-methyl-1H-quinolin-2-one]

Compound: 4-Amino-N-(4-methoxy-phenyl)-3-nitro-benzenesulfonamide-cyclohexyl-urea [Compound T0506_9350]
pIC50 (recombinant human GAPDH; Table 9): < 3.00

pIC50 [1, 4]: < 3.00
Compound: O=C(CN1C(=O)c2ccccc2C1=O)Nc1cc(C(=O)O)cc(C(=O)O)c1 [LT_00379844, 5-[2-(1,3-Dioxo-1,3-dihydro-isoindol-2-yl)-acetylamino]-isophthalic acid]

Compound: 4-(1-Benzyl-IH-indol-3y1)-3,4-dihydro-benzo[4,5]imidazo[1,2-a][1,3,5]triazin-2-ylamine [Compound T0501_7933]
selective inhibition: Gapdhs compared to Gapdh [2]: greater inhibition of Gapdhs than Gapdh
pIC50 [1, 4]: 4.60 to 5.00
pIC50 (recombinant human GAPDH; Table 9): < 3.30

pIC50 [1, 8]: < 3.00
pIC50 (recombinant human GAPDH; Table 7): < 3.00
Compound: C=Cn1cncc1C(=O)C(F)(F)F [Compound T0507_5482, 2,2,2-Trifluoro-1-(3vinyl-3H-imidazol-4-yl)-ethanone]

inhibition of Gapdhs (the other recombinant enzyme beside tGapdhs) (Recombinant mouse Gapdh): did not inhibit
inhibition of tGapdhs [3]: did not inhibit
Compound: Nc1ncnc2c1ncn2[C@@H]1O[C@H](CO)[C@@H](O)[C@H]1O [adenosine]

selective inhibition: Gapdhs compared to Gapdh [2]: greater inhibition of Gapdhs than Gapdh
pIC50 [1, 8]: 4.00
pIC50 (recombinant human GAPDH; Table 7): < 3.00
Compound: Cc1ccc(S(=O)(=O)c2c(N)n(CC(O)c3ccc([N+](=O)[O-])cc3)c3nc4ccccc4nc23)cc1 (stereo not drawn) [Compound T0501_7749, 2-[2-Amino-3-(toluene-4-sulfonyl)-pyrrolo[2,3-b]quinoxalin-1-yl]-1-(4-nitro-phenyl)-ethanol]

Compound: CC1=NN(C(N)=N[N+](=O)[O-])C(=O)C1 [LT_00249157, 3-methyl-5-oxo-pyrazole-1-nitro-carboxamidine]
selective inhibition: Gapdhs compared to Gapdh [2]: greater inhibition of Gapdhs than Gapdh
pIC50 [1, 8]: 4.00

pIC50 [1, 4]: 2.70
Compound: 3-(1H-Imidazolo-4-yl)-2-[3-(4-sulfamoyl-benzyl)-thioureido]-propionic acid [LT_00729760]

Compound: Nc1ncnc2c1ncn2[C@@H]1O[C@H](COP(=O)(O)OP(=O)(O)O)[C@@H](O)[C@H]1O [ADP]
pKi (Recombinant mouse Gapdh; [6]): 2.75
inhibition of Gapdhs (the other recombinant enzyme beside tGapdhs) (Recombinant mouse Gapdh): dose-dependent inhibition
pKi [3, 7]: 2.40
inhibition of tGapdhs [3]: dose-dependent inhibition

pIC50 [1, 4]: 2.30
Compound: CC(CC(=O)Nc1ccc(Cl)c(Cl)c1)=NNC(=O)c1cc2ccccc2cc1O [LT_00587256, N-(3,4-Dichloro-phenyl)-3-[(3-hydroxy-naphthalene-2-carbonyl)-hyrazono]-butyramide]

Compound: Nc1ncnc2c1ncn2[C@@H]1O[C@H](COP(=O)(O)O)[C@@H](O)[C@H]1O [AMP]
pKi (Recombinant mouse Gapdh; [6]): 2.79
inhibition of Gapdhs (the other recombinant enzyme beside tGapdhs) (Recombinant mouse Gapdh): dose-dependent inhibition
pKi [3, 7]: 2.50
inhibition of tGapdhs [3]: dose-dependent inhibition

From patent publication US20050266515A1, “Glyceraldehyde 3-phosphate dehydrogenase-S (GAPDHS), a glycolytic anzyme expressed only in male germ cells, is a target for male contraception” (The University of North Carolina at Chapel Hill, priority 2002, published 2005)
